Results from ChEMBL document CHEMBL1136411, “Imidazo[4,5-b]pyridines as corticotropin releasing factor receptor ligands” (Bioorg Med Chem Lett, 2003).

Legend:
[1] = biological target: T1, Corticotropin releasing factor receptor (Rattus norvegicus, UniProt P47866+P35353); assay: In vitro binding affinity to the CRF receptor in rat cortical homogenates
[2] = biological target: T1, Corticotropin releasing factor receptor; assay: In vitro binding affinity against Corticotropin releasing factor receptor in rat cortical homogenates
[3] = Maximal plasma concentration at a dose of 1 mg/kg; format: ADME, organism-based, Canis lupus familiaris; parameters: dose 1 mg/kg; conditions: dog
[4] = Half life was determined; format: ADME, organism-based, Canis lupus familiaris; conditions: dog, in vivo
Rattus norvegicus = assay: Anxiolytic efficacy in rat after peroral administration; format: functional; conditions: po
Canis familiaris = assay: Area under the curve at a dose of 1 mg/kg; format: ADME, organism-based, Canis lupus familiaris; parameters: dose 1 mg/kg; conditions: dog, in vivo

Structure (SMILES) | Ki [1] | further results
CCCC(C)n1c(CC)nc2c(-c3ccc(SC)cc3C(F)(F)F)ccnc21 (stereo unspecified) | 1.4 nM | –
CCCC(C)n1c(CC)nc2c(-c3ccc(OC)cc3C)ccnc21 (stereo unspecified) | 0.8 nM | –
CCCC(C)n1c(CC)nc2c(-c3ccc(Cl)cc3C(C)=O)ccnc21 (stereo unspecified) | 95.6 nM | –
CCc1nc2c(-c3ccc(Cl)cc3Cl)ccnc2n1[C@H](C)C1CC1 | 0.6 nM | –
CCc1nc2c(-c3ccc(Cl)cc3Cl)ccnc2n1C(C)C1CCC1 (stereo unspecified) | 1 nM | –
CCc1nc2c(-c3ccc(Cl)cc3Cl)ccnc2n1[C@@H](CC)C1CC1 | 0.4 nM | –
CCc1nc2c(-c3ccc(Cl)cc3Cl)ccnc2n1[C@H](CC)C1CC1 | 0.2 nM | –
CCCC(C)n1c(CC)nc2c(-c3ccc(C(C)O)cc3Cl)ccnc21 (stereo unspecified) | 5.1 nM | –
CCc1nc2c(-c3ccc(C(F)(F)F)cc3Cl)ncnc2n1C(C1CC1)C1CC1 | 1.8 nM | –
CCCC(C)n1c(CC)nc2c(-c3ccc(S(C)(=O)=O)cc3C(F)(F)F)ccnc21 (stereo unspecified) | 6.8 nM | –
CCCC(C)n1c(CC)nc2c(-c3cc(C)c(OC)cc3C)ccnc21 (stereo unspecified) | 0.6 nM | –
CCCC(C)n1c(CC)nc2c(-c3cc(F)c(F)cc3Cl)ccnc21 (stereo unspecified) | 2.4 nM | –
CCc1nc2c(-c3ccc(OC(F)F)cc3Cl)ccnc2n1C(C)C1CCC1 (stereo unspecified) | – | Ki [2]: 0.7 nM; Cmax [3]: 0.185 µM; half-life [4]: 10 h; ED50 (Rattus norvegicus): < 3 mg/kg; AUC (Canis familiaris): 795 nM·h
CCCC(C)n1c(CC)nc2c(-c3ccc(C(C)=O)cc3Cl)ccnc21 (stereo unspecified) | 1 nM | –
CCCC(C)n1c(CC)nc2c(-c3ccc(/C(C)=N\OC)cc3Cl)ccnc21 (stereo unspecified) | 2.3 nM | –

More lines, main results first:

Ki [1] | Structure (SMILES) | further results
82.7 nM | CCC(CCOC)n1c(COC)nc2c(-c3ccc(C(F)(F)F)cc3Cl)ccnc21 (stereo unspecified) | –
1 nM | CCc1nc2c(-c3ccc(Cl)cc3Cl)ccnc2n1C(CC)CC | –
1.9 nM | CCC(CCOC)n1c(OC)nc2c(-c3ccc(OC(F)(F)F)cc3Cl)ccnc21 (stereo unspecified) | –
4.7 nM | CCc1nc2c(-c3ccc(C(F)(F)F)cc3Cl)ccnc2n1C(CC)COC (stereo unspecified) | –
1.1 nM | CCCC(C)n1c(CC)nc2c(-c3ccc(C(F)(F)F)cc3Cl)ccnc21 (stereo unspecified) | Ki [2]: 1.1 nM; Cmax [3]: 0.159 µM; half-life [4]: 4.9 h; ED50 (Rattus norvegicus): 3 mg/kg; AUC (Canis familiaris): 604 nM·h
3.5 nM | CCCC(C)n1c(CC)nc2c(-c3ccc(C(C)OC)cc3Cl)ccnc21 (stereo unspecified) | –
1.5 nM | CCc1nc2c(-c3ccc(Cl)cc3Cl)ccnc2n1C(CCOC)C1CC1 (stereo unspecified) | –
15.8 nM | CCCC(C)n1c(C(F)F)nc2c(-c3ccc(Cl)cc3Cl)ccnc21 (stereo unspecified) | –
0.74 nM | CCCC(C)n1c(CC)nc2c(-c3ccc(OC)cc3C(F)(F)F)ccnc21 (stereo unspecified) | Ki [2]: 0.7 nM; Cmax [3]: 0.062 µM; half-life [4]: 5.9 h; ED50 (Rattus norvegicus): 3 mg/kg; AUC (Canis familiaris): 182 nM·h
2.4 nM | CCc1nc2c(-c3ccc(Cl)cc3Cl)ccnc2n1C(CCOC)C1CCC1 (stereo unspecified) | –
1.3 nM | CCc1nc2c(-c3ccc(Cl)cc3Cl)ccnc2n1C(C)CC (stereo unspecified) | –
20.8 nM | CCC(CCOC)n1c(C2CC2)nc2c(-c3ccc(C(F)(F)F)cc3Cl)ccnc21 (stereo unspecified) | –
